From PubChem BioAssay AID192 (DTP/NCI, 2004) come the findings set out here.

Structures are written as SMILES. “And” between values parts separate entries of the source, which are not always exact repeats. Equal values may be shown once. Inconclusive results and toxic doses are left out.

This assay has as its system BDF1 mice, B16 melanoma ip, median survival T/C. Briefly: NCI In Vivo Anticancer Drug Screen. Data for tumor model B16 Melanoma (intraperitoneal) in B6D2F1 (BDF1) mice. Conditions: endpoint: median survival time, higher = longer survival. The essentials: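 Read-out: survival or tumor size, given as treated/control ratio. Controls received vehicle only; animals bore transplantable tumors.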

Turning to `CCC1(O)CC2CN(CCc3c([nH]c4ccccc34)C(C(=O)OC)(c3cc4c(cc3OC)N(C)C3C(O)(C(N)=O)C(O)C5(CC)C=CCN6CCC43C65)C2)C1` (stereo not drawn) (tested in a mixture with another compound), the T/C was 115 % of control (dose: 0.12 mg/kg/injection, schedule: Q04DX003 (ip), vehicle: water); 162 % of control (dose: 0.13 mg/kg/injection, schedule: Q01DX009 (ip), vehicle: water); 159 % of control (dose: 0.18 mg/kg/injection, schedule: Q04DX003 (ip), vehicle: saline); 183 % of control (dose: 0.22 mg/kg/injection, schedule: Q01DX009 (ip), vehicle: water); 108 % of control (dose: 0.25 mg/kg/injection, schedule: Q04DX003 (ip), vehicle: saline); 115 % of control (dose: 0.25 mg/kg/injection, schedule: Q04DX003 (ip), vehicle: water). Also, the T/C is 177 % of control (dose: 0.3 mg/kg/injection, schedule: Q04DX003 (ip), vehicle: saline); 151 % of control and 184 % of control (dose: 0.36 mg/kg/injection, schedule: Q01DX009 (ip), vehicle: water); 176 % of control (dose: 0.39 mg/kg/injection, schedule: Q04DX003 (ip), vehicle: saline); 109 % of control and 236 % of control (dose: 0.5 mg/kg/injection, schedule: Q04DX003 (ip), vehicle: saline); 118 % of control (dose: 0.5 mg/kg/injection, schedule: Q04DX003 (ip), vehicle: water); 183 % of control (dose: 0.52 mg/kg/injection, schedule: Q04DX003 (ip), vehicle: water). In addition, the T/C by setting is: (dose: 0.6 mg/kg/injection, schedule: Q01DX009 (ip), vehicle: water) 241 % of control; (dose: 0.6 mg/kg/injection, schedule: Q04DX003 (ip), vehicle: saline) 119 % of control; (dose: 0.65 mg/kg/injection, schedule: Q04DX003 (ip), vehicle: saline) 172 % of control; (dose: 0.86 mg/kg/injection, schedule: Q04DX003 (ip), vehicle: water) 166 % of control and 202 % of control; (dose: 1.0 mg/kg/injection, schedule: Q04DX003 (ip), vehicle: saline) 168 % of control; (dose: 1.04 mg/kg/injection, schedule: Q01DX001 (ip), vehicle: water) 122 % of control. Further, the T/C reads like this: (dose: 1.08 mg/kg/injection, schedule: Q04DX003 (ip), vehicle: saline) 206 % of control; (dose: 1.44 mg/kg/injection, schedule: Q04DX003 (ip), vehicle: water) 151 % of control and 275 % of control; (dose: 1.73 mg/kg/injection, schedule: Q01DX001 (ip), vehicle: water) 165 % of control; (dose: 1.8 mg/kg/injection, schedule: Q04DX003 (ip), vehicle: saline) 241 % of control; (dose: 2.0 mg/kg/injection, schedule: Q04DX003 (ip), vehicle: saline) 180 % of control; (dose: 2.9 mg/kg/injection, schedule: Q01DX001 (ip), vehicle: water) 166 % of control. Besides, the T/C (dose: 4.0 mg/kg/injection, schedule: Q04DX003 (ip), vehicle: saline) was 181 % of control; the T/C (dose: 4.8 mg/kg/injection, schedule: Q01DX001 (ip), vehicle: water) was 152 % of control and 194 % of control; the T/C (dose: 8.0 mg/kg/injection, schedule: Q01DX001 (ip), vehicle: water) was 211 % of control; the T/C (dose: 37.5 micrograms/kg/injection, schedule: Q01DX009 (ip), vehicle: water) was 98 % of control; the T/C (dose: 60.0 micrograms/kg/injection, schedule: Q01DX009 (ip), vehicle: saline) was 151 % of control; the T/C (dose: 75.0 micrograms/kg/injection, schedule: Q01DX009 (ip), vehicle: water) was 107 % of control. Also, the T/C is, setting by setting: (dose: 100.0 micrograms/kg/injection, schedule: Q01DX009 (ip), vehicle: saline) 152 % of control; (dose: 130.0 micrograms/kg/injection, schedule: Q01DX009 (ip), vehicle: water) 120 % of control; (dose: 150.0 micrograms/kg/injection, schedule: Q01DX009 (ip), vehicle: water) 111 % of control; (dose: 170.0 micrograms/kg/injection, schedule: Q01DX009 (ip), vehicle: saline) 226 % of control; (dose: 216.0 micrograms/kg/injection, schedule: Q01DX009 (ip), vehicle: saline) 173 % of control; (dose: 216.0 micrograms/kg/injection, schedule: Q01DX009 (ip), vehicle: water) 150 % of control and 165 % of control. In addition, the T/C is, setting by setting: (dose: 300.0 micrograms/kg/injection, schedule: Q01DX009 (ip), vehicle: water) 123 % of control; (dose: 360.0 micrograms/kg/injection, schedule: Q01DX009 (ip), vehicle: saline) 183 % of control; (dose: 360.0 micrograms/kg/injection, schedule: Q01DX009 (ip), vehicle: water) 155 % of control; (dose: 389.0 micrograms/kg/injection, schedule: Q04DX003 (ip), vehicle: saline) 187 % of control and 207 % of control; (dose: 600.0 micrograms/kg/injection, schedule: Q01DX009 (ip), vehicle: saline) 191 % of control; (dose: 600.0 micrograms/kg/injection, schedule: Q01DX009 (ip), vehicle: water) 155 % of control and 175 % of control. Besides, the T/C is, setting by setting: (dose: 648.0 micrograms/kg/injection, schedule: Q04DX003 (ip), vehicle: saline) 179 % of control and 258 % of control; (dose: 1080.0 micrograms/kg/injection, schedule: Q04DX003 (ip), vehicle: saline) 161 % of control and 214 % of control and 225 % of control; (dose: 1800.0 micrograms/kg/injection, schedule: Q04DX003 (ip), vehicle: saline) 195 % of control and 248 % of control and 303 % of control; (dose: 3000.0 micrograms/kg/injection, schedule: Q04DX003 (ip), vehicle: saline) 152 % of control and 243 % of control and 308 % of control.

Regarding `CCN(CC)C(C(=O)Nc1ccccc1)C(=O)Nc1ccccc1`, the T/C (dose: 100.0 mg/kg/injection, schedule: Q01DX009 (ip), vehicle: saline with Tween-80) was 100 % of control; the T/C (dose: 200.0 mg/kg/injection, schedule: Q01DX009 (ip), vehicle: saline with Tween-80) was 90 % of control; the T/C (dose: 400.0 mg/kg/injection, schedule: Q01DX009 (ip), vehicle: saline with Tween-80) is 95 % of control.

For `CCCCCCCCCCCCCCCC[N+]1(CC)CCCC1`, the T/C is 102 % of control (dose: 0.1 mg/kg/injection, schedule: Q01DX009 (ip), vehicle: Klucel (hydroxypropylcellulose) (HPC)) and 95 % of control (dose: 0.2 mg/kg/injection, schedule: Q01DX009 (ip), vehicle: Klucel (hydroxypropylcellulose) (HPC)).

Consider `CCCCCCCC(=O)O[C@H]1[C@H]2[C@@H](CC1(C)C)C(=O)[C@]13O[C@H]1C(=O)[C@]1(CO1)[C@]23C`, for which the T/C (dose: 0.31 mg/kg/injection, schedule: Q01DX009 (ip), vehicle: Klucel (hydroxypropylcellulose) (HPC)) is 98 % of control; the T/C (dose: 0.63 mg/kg/injection, schedule: Q01DX009 (ip), vehicle: Klucel (hydroxypropylcellulose) (HPC)) is 102 % of control; the T/C (dose: 0.63 mg/kg/injection, schedule: Q01DX009 (ip), vehicle: saline with Tween-80) was 92 % of control; the T/C (dose: 1.25 mg/kg/injection, schedule: Q01DX009 (ip), vehicle: Klucel (hydroxypropylcellulose) (HPC)) is 100 % of control; the T/C (dose: 1.25 mg/kg/injection, schedule: Q01DX009 (ip), vehicle: saline with Tween-80) is 89 % of control; the T/C (dose: 2.5 mg/kg/injection, schedule: Q01DX009 (ip), vehicle: Klucel (hydroxypropylcellulose) (HPC)) was 98 % of control. Moreover, the T/C (dose: 2.5 mg/kg/injection, schedule: Q01DX009 (ip), vehicle: saline with Tween-80) was 92 % of control; the T/C (dose: 5.0 mg/kg/injection, schedule: Q01DX009 (ip), vehicle: Klucel (hydroxypropylcellulose) (HPC)) is 90 % of control; the T/C (dose: 10.0 mg/kg/injection, schedule: Q01DX009 (ip), vehicle: Klucel (hydroxypropylcellulose) (HPC)) is 86 % of control.

With `CC(C)C(O)(C(=O)NN)C(=O)NN`, the T/C reads like this: (dose: 50.0 mg/kg/injection, schedule: Q04DX003 (ip), vehicle: saline) 91 % of control; (dose: 100.0 mg/kg/injection, schedule: Q04DX003 (ip), vehicle: saline) 96 % of control; (dose: 200.0 mg/kg/injection, schedule: Q04DX003 (ip), vehicle: saline) 117 % of control.

For the molecule `COC(=O)[C@@H]1c2cc3c(c(O)c2[C@@H](OC2OC(C)C(OC)C(C)(OC)C2OC)C[C@]1(C)O)C(=O)c1c(O)cc2c(c1C3=O)O[C@H]1O[C@]2(C)[C@H](O)[C@@H](N(C)C)[C@@H]1O` (stereo partly drawn), the T/C was 171 % of control (dose: 250.0 micrograms/kg/injection, schedule: Q01DX009 (ip), vehicle: other); 171 % of control (dose: 500.0 micrograms/kg/injection, schedule: Q01DX009 (ip), vehicle: other); 100 % of control (dose: 648.0 micrograms/kg/injection, schedule: Q04DX003 (ip), vehicle: lactic acid); 107 % of control and 121 % of control (dose: 1080.0 micrograms/kg/injection, schedule: Q04DX003 (ip), vehicle: lactic acid); 110 % of control (dose: 1800.0 micrograms/kg/injection, schedule: Q04DX003 (ip), vehicle: lactic acid).
